Assay results published in PubChem BioAssay (NCI).
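All cell lines were grown in 96-well plates and treated with compound for 48 hours. GI50 = concentration required for 50% inhibition of growth. TGI marks complete inhibition of growth.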

Tests used:
Experiment in all cases: NCI tumour cell line growth inhibition, 48 h
T-47D breast = system: T-47D breast
SF-268 CNS = system: SF-268 CNS
HT29 colon = system: HT29 colon
TK-10 renal = system: TK-10 renal
UACC-257 melanoma = system: UACC-257 melanoma
SK-MEL-2 melanoma = system: SK-MEL-2 melanoma
NCI-H460 lung = system: NCI-H460 lung
SK-OV-3 ovarian = system: SK-OV-3 ovarian
NCI-H23 lung = system: NCI-H23 lung
NCI/ADR-RES ovarian = system: NCI/ADR-RES ovarian
HCT-15 colon = system: HCT-15 colon
SNB-75 CNS = system: SNB-75 CNS
LOX IMVI melanoma = system: LOX IMVI melanoma
OVCAR-5 ovarian = system: OVCAR-5 ovarian
HOP-62 NSCLC = system: HOP-62 NSCLC
MCF7 breast = system: MCF7 breast
COLO 205 colon = system: COLO 205 colon
MDA-MB-435 = system: MDA-MB-435
SF-295 CNS = system: SF-295 CNS
ACHN renal = system: ACHN renal
CAKI-1 renal = system: CAKI-1 renal
EKVX NSCLC = system: EKVX NSCLC
SK-MEL-5 melanoma = system: SK-MEL-5 melanoma
U251 CNS = system: U251 CNS
RXF 393 renal = system: RXF 393 renal
HS 578T breast = system: HS 578T breast
NCI-H226 lung = system: NCI-H226 lung
HCC-2998 colon = system: HCC-2998 colon
SW-620 colon = system: SW-620 colon
NCI-H522 lung = system: NCI-H522 lung
IGROV1 ovarian = system: IGROV1 ovarian
SK-MEL-28 melanoma = system: SK-MEL-28 melanoma
UO-31 renal = system: UO-31 renal
OVCAR-8 ovarian = system: OVCAR-8 ovarian
DU-145 prostate = system: DU-145 prostate
OVCAR-4 ovarian = system: OVCAR-4 ovarian
A549 NSCLC = system: A549 NSCLC
OVCAR-3 ovarian = system: OVCAR-3 ovarian
SF-539 CNS = system: SF-539 CNS
KM12 colon = system: KM12 colon
A498 renal = system: A498 renal
MOLT-4 leukemia = system: MOLT-4 leukemia
MALME-3M melanoma = system: MALME-3M melanoma
SNB-19 CNS = system: SNB-19 CNS
K-562 leukemia = system: K-562 leukemia
HOP-92 NSCLC = system: HOP-92 NSCLC

With `CCS(=O)(=O)N1CCC(C(C)n2c(C)c(C(=O)NCc3c(OC)cc(C)[nH]c3=O)c3ccccc32)CC1` (stereo unspecified) the GI50 (T-47D breast) was > 100 µM, the TGI (T-47D breast) was > 100 µM and the GI50 (SF-268 CNS) was > 100 µM. For the same compound, the TGI (SF-268 CNS) was > 100 µM, the GI50 (HT29 colon) was > 100 µM and the TGI (HT29 colon) was > 100 µM. The GI50 (TK-10 renal) was > 100 µM, the TGI (TK-10 renal) was > 100 µM and the GI50 (UACC-257 melanoma) was > 100 µM. For the same compound, the TGI (UACC-257 melanoma) was > 100 µM, the GI50 (SK-MEL-2 melanoma) was > 100 µM and the TGI (SK-MEL-2 melanoma) was > 100 µM. The GI50 (NCI-H460 lung) was > 100 µM, the TGI (NCI-H460 lung) was > 100 µM and the GI50 (SK-OV-3 ovarian) was > 100 µM. The TGI (SK-OV-3 ovarian) was > 100 µM, the GI50 (NCI-H23 lung) was > 100 µM and the TGI (NCI-H23 lung) was > 100 µM. The GI50 (NCI/ADR-RES ovarian) was > 100 µM, the TGI (NCI/ADR-RES ovarian) was > 100 µM and the GI50 (HCT-15 colon) was > 100 µM. For the same compound, the TGI (HCT-15 colon) was > 100 µM, the GI50 (SNB-75 CNS) was 36.3 µM and the TGI (SNB-75 CNS) was > 100 µM. For the same compound, the GI50 (LOX IMVI melanoma) was > 100 µM, the TGI (LOX IMVI melanoma) was > 100 µM and the GI50 (OVCAR-5 ovarian) was > 100 µM. For the same compound, the TGI (OVCAR-5 ovarian) was > 100 µM, the GI50 (HOP-62 NSCLC) was > 100 µM and the TGI (HOP-62 NSCLC) was > 100 µM. The GI50 (MCF7 breast) was 25.8 µM, the TGI (MCF7 breast) was > 100 µM and the GI50 (COLO 205 colon) was > 100 µM. For the same compound, the TGI (COLO 205 colon) was > 100 µM, the GI50 (MDA-MB-435) was > 100 µM and the TGI (MDA-MB-435) was > 100 µM. For the same compound, the GI50 (SF-295 CNS) was > 100 µM, the TGI (SF-295 CNS) was > 100 µM and the GI50 (ACHN renal) was > 100 µM. The TGI (ACHN renal) was > 100 µM, the GI50 (CAKI-1 renal) was > 100 µM and the TGI (CAKI-1 renal) was > 100 µM. The GI50 (EKVX NSCLC) was > 100 µM, the TGI (EKVX NSCLC) was > 100 µM and the GI50 (SK-MEL-5 melanoma) was > 100 µM. The TGI (SK-MEL-5 melanoma) was > 100 µM, the GI50 (U251 CNS) was > 100 µM and the TGI (U251 CNS) was > 100 µM. The GI50 (RXF 393 renal) was > 100 µM, the TGI (RXF 393 renal) was > 100 µM and the GI50 (HS 578T breast) was > 100 µM. The TGI (HS 578T breast) was > 100 µM, the GI50 (NCI-H226 lung) was > 100 µM and the TGI (NCI-H226 lung) was > 100 µM. For the same compound, the GI50 (HCC-2998 colon) was > 100 µM, the TGI (HCC-2998 colon) was > 100 µM and the GI50 (SW-620 colon) was > 100 µM. For the same compound, the TGI (SW-620 colon) was > 100 µM, the GI50 (NCI-H522 lung) was > 100 µM and the TGI (NCI-H522 lung) was > 100 µM. For the same compound, the GI50 (IGROV1 ovarian) was 57.6 µM, the TGI (IGROV1 ovarian) was > 100 µM and the GI50 (SK-MEL-28 melanoma) was > 100 µM. For the same compound, the TGI (SK-MEL-28 melanoma) was > 100 µM, the GI50 (UO-31 renal) was > 100 µM and the TGI (UO-31 renal) was > 100 µM. The GI50 (OVCAR-8 ovarian) was > 100 µM, the TGI (OVCAR-8 ovarian) was > 100 µM and the GI50 (DU-145 prostate) was > 100 µM. For the same compound, the TGI (DU-145 prostate) was > 100 µM, the GI50 (OVCAR-4 ovarian) was > 100 µM and the TGI (OVCAR-4 ovarian) was > 100 µM. For the same compound, the GI50 (A549 NSCLC) was > 100 µM, the TGI (A549 NSCLC) was > 100 µM and the GI50 (OVCAR-3 ovarian) was > 100 µM. The TGI (OVCAR-3 ovarian) was > 100 µM, the GI50 (SF-539 CNS) was > 100 µM and the TGI (SF-539 CNS) was > 100 µM. For the same compound, the GI50 (KM12 colon) was > 100 µM, the TGI (KM12 colon) was > 100 µM and the GI50 (A498 renal) was > 100 µM. The TGI (A498 renal) was > 100 µM.
`CC(=O)OC1C(C)OC(Oc2c(C)c3c4c(c2O)[C@@H](C)CC[C@@H]4[C@@H](C)C[C@H]3C=C(C)C)C(O)C1O` (stereo partly specified) was tested, and the GI50 (SF-268 CNS) was 16 µM, the TGI (SF-268 CNS) was 55.3 µM and the GI50 (MOLT-4 leukemia) was 2.23 µM. For the same compound, the TGI (MOLT-4 leukemia) was > 100 µM, the GI50 (TK-10 renal) was 1.79 µM and the TGI (TK-10 renal) was 3.67 µM. The GI50 (SK-MEL-2 melanoma) was > 100 µM, the TGI (SK-MEL-2 melanoma) was > 100 µM and the GI50 (NCI-H460 lung) was 3.57 µM. For the same compound, the TGI (NCI-H460 lung) was > 100 µM, the GI50 (NCI/ADR-RES ovarian) was 2.96 µM and the TGI (NCI/ADR-RES ovarian) was 9.13 µM. The GI50 (MALME-3M melanoma) was 1.82 µM, the TGI (MALME-3M melanoma) was 4.19 µM and the GI50 (HOP-62 NSCLC) was 2.26 µM. For the same compound, the TGI (HOP-62 NSCLC) was 5.3 µM, the GI50 (MCF7 breast) was 5.81 µM and the TGI (MCF7 breast) was > 100 µM. The GI50 (COLO 205 colon) was 3.98 µM, the TGI (COLO 205 colon) was > 100 µM and the GI50 (MDA-MB-435) was 2.13 µM. For the same compound, the TGI (MDA-MB-435) was 4.49 µM, the GI50 (CAKI-1 renal) was 1.87 µM and the TGI (CAKI-1 renal) was 3.74 µM. For the same compound, the GI50 (SK-MEL-5 melanoma) was 2.49 µM, the TGI (SK-MEL-5 melanoma) was 5.39 µM and the GI50 (RXF 393 renal) was 4.11 µM. It also gave a TGI (RXF 393 renal) of 20.9 µM, a GI50 (HS 578T breast) of 2.43 µM and a TGI (HS 578T breast) of 5.51 µM. For the same compound, the GI50 (SNB-19 CNS) was 3.41 µM, the TGI (SNB-19 CNS) was > 100 µM and the GI50 (NCI-H522 lung) was 49.7 µM. For the same compound, the TGI (NCI-H522 lung) was > 100 µM, the GI50 (IGROV1 ovarian) was 46.2 µM and the TGI (IGROV1 ovarian) was > 100 µM. The GI50 (UO-31 renal) was 22.6 µM, the TGI (UO-31 renal) was > 100 µM and the GI50 (K-562 leukemia) was 2.24 µM. The TGI (K-562 leukemia) was 5.27 µM, the GI50 (OVCAR-8 ovarian) was 37.8 µM and the TGI (OVCAR-8 ovarian) was > 100 µM. The GI50 (OVCAR-4 ovarian) was 3.2 µM, the TGI (OVCAR-4 ovarian) was > 100 µM and the GI50 (A549 NSCLC) was 10 µM. The TGI (A549 NSCLC) was > 100 µM, the GI50 (HOP-92 NSCLC) was 3.73 µM and the TGI (HOP-92 NSCLC) was 9.56 µM. For the same compound, the GI50 (OVCAR-3 ovarian) was 1.7 µM, the TGI (OVCAR-3 ovarian) was 3.33 µM and the GI50 (KM12 colon) was 1.87 µM. The TGI (KM12 colon) was 3.66 µM, the GI50 (A498 renal) was 4.43 µM and the TGI (A498 renal) was 14.7 µM.
